Reference: ChEMBL document CHEMBL3797079, “Synergistic reduction of HIV-1 infectivity by 5-azacytidine and inhibitors of ribonucleotide reductase” (Bioorg Med Chem, 2016)
Active and inactive are the calls of the source. No cut-off for these calls is given here.

Columns and labels:
[1] = tested on: Human immunodeficiency virus 1; experiment: Antiviral activity against VSV-G pseudotyped HIV-1 NL4-3 infected in human U373-MAGI cells assessed as Pol mutation at 50 uM incubated for 4 hrs prior to infection measured at 72 hrs post infection by illumina sequencing method (reference value: 18.5%); assay type: functional
U373-MAGI [2] = experiment: Reduction in dCTP level in human U373-MAGI cells at 200 uM preincubated for 2 hrs followed by 5-aza-C addition measured after 4 hrs by LC-MS/MS analysis relative to 5-aza-C; assay type: functional, cell-based
[3] = tested on: Human immunodeficiency virus 1; experiment: (§1) Potentiation of 5-Aza-C-induced antiviral activity against VSV-G pseudotyped HIV-1 NL4-3 infected in human U373-MAGI cells assessed as Nef mutation at 50 uM incubated for 4 hrs preinfection followed by 5-Aza-C addition for 2 hrs preinfection and subsequent viral infection measured at 72 hrs post infection by illumina sequencing method (reference value: 22.6%); assay type: functional
[4] = tested on: Human immunodeficiency virus 1; experiment: as §1, with “Vif” for “Nef”, “19.2%)” for “22.6%)”; assay type: functional
U373-MAGI [5] = experiment: Reduction in dCTP level in human U373-MAGI cells at 200 uM preincubated for 2 hrs followed by 5-aza-dC addition measured after 4 hrs by LC-MS/MS analysis relative to 5-aza-dC; assay type: functional, cell-based
U373-MAGI [6] = experiment: Reduction in dATP level in human U373-MAGI cells at 200 uM after 6 hrs by LC-MS/MS analysis; assay type: functional, cell-based

With `Oc1ccc(/C=C/c2cc(O)cc(O)c2)cc1` [RESVERATROL] the Activity [1] was 19%, the Activity (U373-MAGI [2]) was “Active” and the Activity [3] was 17.1%. The Activity [4] was 22.6%, the Activity (U373-MAGI [5]) was “Active” and the Activity (U373-MAGI [6]) was “Active”.
